# Measured values as given in patent publication US8617614B2, “Sustained release preparation for tissue regeneration therapy” (Ono Pharmaceutical Co., Ltd., priority 2006, dated 2013).
# System: hippocampal CA1 region nerve cells
# Test: Number of nerve cells in hippocampal CA1 region, rat 4-VO model (Nissl staining)
# Assay type: in vivo
# Conditions: for number of hippocampal CA1 pyramidal nerve cells relative to the group given the medium (Test Group 3): rat 4-VO Test 1, day 42, s.c. twice daily, present drug 10, ornoprostil 0.1, PGE1•αCD 1.5 and 3 mg/kg
SMILES,"Number of nerve cells per unit length (count/mm) Left (L) (rat 4-VO Test 1, Test Group 6: 1.5 mg/kg (as PGE1) s.c. twice daily 42 days)",number of hippocampal CA1 pyramidal nerve cells relative to the group given the medium (Test Group 3)
"CCCCC[C@H](O)/C=C/[C@H]1[C@H](O)CC(=O)[C@@H]1CCCCCCC(=O)O [PGE1•αCD, prostaglandin E1, reference compound]",105.7 ± 24.0 count/mm,significant increase
"CCCC[C@H](C)C[C@H](O)/C=C/[C@H]1[C@H](O)CC(=O)[C@@H]1CC(=O)CCCCC(=O)OC [ornoprostil, reference compound]",,significant increase
